Measurements as given in paper PMC3008316 (Antiviral research, 2009).
Where two headings read alike, the source gives them in different places. Marks after values point to notes of the source that are not given here.

Experiments:
PTV, Adames strain [1] = tested on: PTV, Adames strain; parameters: species or system Syrian hamsters; settings: hamster, in vivo
PTV, Adames strain [2] = tested on: PTV, Adames strain; parameters: species or system C57BL/6 mice; settings: mouse, in vivo
PICV, strain An 4763 [3] = type: in vivo, Syrian hamsters
[4] = tested on: phleboviruses (RVFV, PTV, SFNV); experiment: organism not typed; type: cell-based
[5] = tested on: RVFV vaccine strain MP-12
[6] = tested on: RVFV vaccine strain MP-12; remark: listed apart in the source
PTV, Adames strain [7] = tested on: PTV, Adames strain
PTV, Adames strain [8] = tested on: PTV, Adames strain; remark: listed apart in the source
[9] = tested on: Sandfly fever virus, Naples strain (SFNV)
[10] = tested on: Sandfly fever virus, Naples strain (SFNV); remark: listed apart in the source
[11] = tested on: Tacaribe virus (TCRV), strain TRVL 11573
[12] = tested on: Tacaribe virus (TCRV), strain TRVL 11573; remark: listed apart in the source
[13] = tested on: Junin virus (JUNV) vaccine strain Candid 1
[14] = tested on: Junin virus (JUNV) vaccine strain Candid 1; remark: listed apart in the source
PICV, strain An 4763 [15] = tested on: PICV, strain An 4763
PICV, strain An 4763 [16] = tested on: PICV, strain An 4763; remark: listed apart in the source
Vero cells = settings: monkey
in vitro [17] = settings: monkey, CC50 ± SD
in vitro [18] = settings: monkey, CC50 ± SD; remark: listed apart in the source
[19] = tested on: RVFV vaccine strain MP-12; experiment: microbe, parasite or virus in culture; settings: Rift Valley fever virus, Vero 76, read-out: EC50 ± SD (CPER)
[20] = tested on: RVFV vaccine strain MP-12; experiment: microbe, parasite or virus in culture; settings: Rift Valley fever virus, Vero 76, read-out: EC90 ± SD (VYR)
PTV, Adames strain [21] = experiment: microbe, parasite or virus in culture; settings: Punta Toro virus, Vero 76, read-out: EC50 ± SD (CPER)
PTV, Adames strain [22] = experiment: microbe, parasite or virus in culture; settings: Punta Toro virus, Vero 76, read-out: EC90 ± SD (VYR)
[23] = tested on: Sandfly fever virus, Naples strain (SFNV); experiment: microbe, parasite or virus in culture; settings: sandfly fever Sicilian virus, Vero 76, read-out: EC50 ± SD (CPER)
[24] = tested on: Sandfly fever virus, Naples strain (SFNV); experiment: microbe, parasite or virus in culture; settings: sandfly fever Sicilian virus, Vero 76, read-out: EC90 ± SD (VYR)
[25] = tested on: Tacaribe virus (TCRV), strain TRVL 11573; experiment: microbe, parasite or virus in culture; settings: Mammarenavirus tacaribeense, Vero 76, read-out: EC50 ± SD (CPER)
[26] = tested on: Tacaribe virus (TCRV), strain TRVL 11573; experiment: microbe, parasite or virus in culture; settings: Mammarenavirus tacaribeense, Vero 76, read-out: EC90 ± SD (VYR)
[27] = tested on: Junin virus (JUNV) vaccine strain Candid 1; experiment: microbe, parasite or virus in culture; settings: Mammarenavirus juninense, Vero, read-out: EC50 ± SD (CPER)
[28] = tested on: Junin virus (JUNV) vaccine strain Candid 1; experiment: microbe, parasite or virus in culture; settings: Mammarenavirus juninense, Vero, read-out: EC90 ± SD (VYR)
PICV, strain An 4763 [29] = experiment: microbe, parasite or virus in culture; settings: Pichinde virus, Vero, read-out: EC50 ± SD (CPER)
PICV, strain An 4763 [30] = experiment: microbe, parasite or virus in culture; settings: Pichinde virus, Vero, read-out: EC90 ± SD (VYR)
[31] = hamster, in vivo, po, 25 mg/kg/day
[32] = hamster, in vivo, po, 50 mg/kg/day
[33] = hamster, in vivo, po, 100 mg/kg/day

NC(=O)c1nc(F)cnc1O [T-705, 6-fluoro-3-hydroxy-2-pyrazinecarboxamide]
ED50 (survival) (PTV, Adames strain [1]): 112 µmol/kg/day
Mean virus titer ± SD, liver (PTV, Adames strain [1]): < 3.9 ± 1.5 (40)
Survival compared to placebo (PTV, Adames strain [1]): significant protection
ALT ± SD (PTV, Adames strain [1]; po, 25 mg/kg/day): 820 ± 1148 international units per liter
Mean virus titer ± SD, liver (PTV, Adames strain [1]; po, 25 mg/kg/day): < 5.9 ± 1.8 (80)
Mean virus titer ± SD, serum (PTV, Adames strain [1]; po, 25 mg/kg/day): < 5.4 ± 3.4 (60)
Percentage of animals with detectable virus, liver (PTV, Adames strain [1]; po, 25 mg/kg/day): < 5.9 ± 1.8 (80) %
Percentage of animals with detectable virus, serum (PTV, Adames strain [1]; po, 25 mg/kg/day): < 5.4 ± 3.4 (60) %
ALT ± SD (PTV, Adames strain [1]; po, 50 mg/kg/day): 52 ± 79 international units per liter
Mean virus titer ± SD, liver (PTV, Adames strain [1]; po, 50 mg/kg/day): < 3.6 ± 1.7 (40)
Percentage of animals with detectable virus, liver (PTV, Adames strain [1]; po, 50 mg/kg/day): < 3.6 ± 1.7 (40) %
ALT ± SD (PTV, Adames strain [1]; po, 100 mg/kg/day): 38 ± 19 international units per liter
Mean virus titer ± SD, serum (PTV, Adames strain [1]; po, 100 mg/kg/day): < 3.1 ± 1.9 (40)
Percentage of animals with detectable virus, liver (PTV, Adames strain [1]; po, 100 mg/kg/day): < 3.9 ± 1.5 (40) %
Percentage of animals with detectable virus, serum (PTV, Adames strain [1]; po, 100 mg/kg/day): < 3.1 ± 1.9 (40) %
ED50 (survival) (PTV, Adames strain [2]): 159 µmol/kg/day
Potency relative to T-1106 based on ALT molar dose response (PICV, strain An 4763 [3]; hamster, in vivo): 2.6 fold
Potency relative to T-1106 based on ED50 (PICV, strain An 4763 [3]; hamster, in vivo): 6.1 times
Survival compared to placebo (PICV, strain An 4763 [3]; hamster, in vivo): significantly protected
ED50 (survival) (PICV, strain An 4763 [3]; hamster, in vivo, po): 72 µmol/kg/day
ALT ± SD (PICV, strain An 4763 [3]; [31]): 859 ± 782 international units per liter
Mean virus titer ± SD, liver (PICV, strain An 4763 [3]; [31]): 7.6 ± 0.8 (100)
Mean virus titer ± SD, serum (PICV, strain An 4763 [3]; [31]): 6.6 ± 1.0 (100)
Percentage of animals with detectable virus, liver (PICV, strain An 4763 [3]; [31]): 7.6 ± 0.8 (100) %
Percentage of animals with detectable virus, serum (PICV, strain An 4763 [3]; [31]): 6.6 ± 1.0 (100) %
Mean virus titer ± SD, liver (PICV, strain An 4763 [3]; [32]): 5.8 ± 1.1 (100)
Mean virus titer ± SD, serum (PICV, strain An 4763 [3]; [32]): < 3.8 ± 1.6 (80)
Percentage of animals with detectable virus, liver (PICV, strain An 4763 [3]; [32]): 5.8 ± 1.1 (100) %
Percentage of animals with detectable virus, serum (PICV, strain An 4763 [3]; [32]): < 3.8 ± 1.6 (80) %
Mean virus titer ± SD, liver (PICV, strain An 4763 [3]; [33]): < 3.3 ± 0.5 (60)
Mean virus titer ± SD, serum (PICV, strain An 4763 [3]; [33]): < 1.8 (0) ^**
Percentage of animals with detectable virus, liver (PICV, strain An 4763 [3]; [33]): < 3.3 ± 0.5 (60) %
Percentage of animals with detectable virus, serum (PICV, strain An 4763 [3]; [33]): < 1.8 (0) ^** %
Survival outcome (PICV, strain An 4763 [3]; n=10): complete protection
Animals protected (survival) (PICV, strain An 4763 [3]; n=10, 25 mg/kg/day): 70%
Animals protected (survival) (PICV, strain An 4763 [3]; n=10, 50 mg/kg/day): 80%
Inhibitory concentrations, range [4]: 3 to 55 µM
EC50 ([4]; read-out: EC50 values, range (CPE reduction assay)): 27 to 55 µM
EC90 ([4]; read-out: EC90 values, range (VYR)): 3 to 19 µM
SI (CC50/EC50) [5]: >236
SI (CC50/EC90) [6]: >530
SI (CC50/EC50) (PTV, Adames strain [7]): >68
SI (CC50/EC90) (PTV, Adames strain [8]): >197
SI (CC50/EC50) [9]: 195
SI (CC50/EC90) [10]: 1952
SI (CC50/EC50) [11]: >187
SI (CC50/EC90) [12]: >405
SI (CC50/EC50) [13]: >285
SI (CC50/EC90) [14]: >387
SI (CC50/EC50) (PICV, strain An 4763 [15]): 194
SI (CC50/EC90) (PICV, strain An 4763 [16]): 202
CC50 (Vero cells): 4860 ± 409 µM
CC50 (in vitro [17]): > 6360 µM
CC50 (in vitro [18]): > 5410 µM
EC50 [19]: 27 ± 5 µM
EC90 [20]: 12 ± 4 µM
EC50 (PTV, Adames strain [21]): 55 ± 35 µM
EC90 (PTV, Adames strain [22]): 19 ± 11 µM
EC50 [23]: 30 ± 15 µM
EC90 [24]: 3 ± 1 µM
EC50 [25]: 26 ± 13 µM
EC90 [26]: 12 ± 4 µM
EC50 [27]: 19 ± 5 µM
EC90 [28]: 14 ± 3 µM
EC50 (PICV, strain An 4763 [29]): 25 ± 6 µM
EC90 (PICV, strain An 4763 [30]): 24 ± 5 µM
